# Measurements reported in patent US6458802B1, “Antidepressant azaheterocyclymethyl derivatives of 2,3-dihydro-1,4-dioxino [2,3-f]quinoline” (Wyeth, priority 2001, dated 2002).
# Where a name gives a salt, the structure may show the parent alone. Read-outs that look alike come from different tables or passages of the source.
# Assays:
# serotonin transporter = molecular target: T1, serotonin transporter (Rattus norvegicus, UniProt P31652); assay: 3H-paroxetine displacement, affinity for the serotonin transporter; type: binding
# T1 construct: displace ^3H-paroxetine from male rat frontal cortical membranes; from tissue; host or cells: male rat frontal cortex membranes
# T1 sequence (P31652 whole entry): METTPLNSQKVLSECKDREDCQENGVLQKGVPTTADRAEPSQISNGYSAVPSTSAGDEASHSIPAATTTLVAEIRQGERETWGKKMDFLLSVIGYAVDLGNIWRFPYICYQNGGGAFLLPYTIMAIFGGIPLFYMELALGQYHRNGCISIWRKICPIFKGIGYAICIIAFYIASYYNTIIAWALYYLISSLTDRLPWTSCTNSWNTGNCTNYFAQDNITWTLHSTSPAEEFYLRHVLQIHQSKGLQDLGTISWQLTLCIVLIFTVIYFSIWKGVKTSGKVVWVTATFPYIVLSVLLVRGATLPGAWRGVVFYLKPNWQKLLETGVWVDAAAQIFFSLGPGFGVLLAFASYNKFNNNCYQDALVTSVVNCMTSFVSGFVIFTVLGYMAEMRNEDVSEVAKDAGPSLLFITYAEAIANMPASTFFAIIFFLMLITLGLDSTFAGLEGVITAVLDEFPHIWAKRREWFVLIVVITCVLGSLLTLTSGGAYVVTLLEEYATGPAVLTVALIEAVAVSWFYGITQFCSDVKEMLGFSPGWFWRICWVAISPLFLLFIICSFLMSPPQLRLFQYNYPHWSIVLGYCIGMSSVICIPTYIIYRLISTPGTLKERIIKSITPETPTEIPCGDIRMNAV
# human 5HT1A receptors = molecular target: T2, human 5HT1A receptors (Homo sapiens, UniProt P08908); assay: [3H] 8-OH-DPAT displacement from the 5HT1A serotonin receptor (transfected CHO cells); type: binding
# T2 construct: expressed in transfected cells; host or cells: CHO cells
# T2 sequence (P08908 1-422): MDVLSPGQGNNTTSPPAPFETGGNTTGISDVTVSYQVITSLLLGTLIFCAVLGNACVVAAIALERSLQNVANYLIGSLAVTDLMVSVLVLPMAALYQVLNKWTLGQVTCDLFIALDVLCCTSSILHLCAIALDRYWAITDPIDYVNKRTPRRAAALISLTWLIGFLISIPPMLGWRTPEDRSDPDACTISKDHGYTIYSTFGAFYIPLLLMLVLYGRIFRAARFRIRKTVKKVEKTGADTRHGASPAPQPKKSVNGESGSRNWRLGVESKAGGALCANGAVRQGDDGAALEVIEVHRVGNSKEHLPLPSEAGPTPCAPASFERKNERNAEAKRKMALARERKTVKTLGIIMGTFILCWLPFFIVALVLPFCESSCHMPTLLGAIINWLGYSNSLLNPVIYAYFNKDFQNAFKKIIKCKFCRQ
# Source text: High affinity for the serotonin 5HT1A receptor was established by testing the claimed compound's ability to displace [^3H] 8-OH-DPAT (dipropylamino-tetralin) from the 5HT1A serotonin receptor following a modification of the procedure of Hall et al., J. Neurochem. 44, 1685 (1985) which utilizes CHO cells stably transfected with human 5HT1A receptors.
# [1] = molecular target: T3, cloned human 5HT1A receptors (Homo sapiens, UniProt P08908); assay: 35S-GTPγS binding assay, antagonist activity at 5HT1A receptors; type: biochemical; settings: for IC50: 35S-GTPγS binding, reversal of the effects of the standard agonist 8-OH-DPAT, membranes with cloned human 5HT1A receptors, read-out: 5HT1A Function IC50; for Emax: maximum inhibitory effect in 35S-GTPγS binding versus 8-OH-DPAT, read-out: 5HT1A Function (Imax)
# T3 construct: expressed in transfected cells
# T3 sequence (P08908 1-422): T2 sequence (P08908 1-422)
# Experimental: Antagonist activity at 5HT1A receptors was established by using a ^35S-GTPγS binding assay similar to that used by Lazareno and Birdsall (Br. J. Pharmacol. 109: 1120, 1993), in which the test compound's ability to affect the binding of 35S-GTPγS to membranes containing cloned human 5HT1A receptors was determined. Agonists produce an increase in binding whereas antagonists produce no increase but rather reverse the effects of the standard agonist 8-OH-DPAT. The test compound's maximum inhibitory effect is represented as the 1max, while its potency is defined by the IC50.
# [2] = displacement of [3H] 8-OH-DPAT, CHO cells stably transfected with human 5HT1A receptors, read-out: 5HT1A Receptor Affinity KI
Structure (SMILES),melting point,"Ki (serotonin transporter; displacement of 3H-paroxetine from male rat frontal cortical membranes, read-out: 5-HT Transporter Affinity KI)",Ki (human 5HT1A receptors; [2]),Ki (serotonin transporter),Ki (human 5HT1A receptors),IC50 [1],Emax [1]
"N#Cc1ccc2[nH]cc(C3=CCN(CC4COc5ccc6ncccc6c5O4)CC3)c2c1 (stereo not drawn) (as salt: fumarate) [Example 5, 3-[1-(2,3-Dihydro[1,4]dioxino[2,3-f]quinolin-2-ylmethyl)-1,2,3,6-tetrahydropyridin-4-yl]-1H-indole-5-carbonitrile]",159 to 161 °C,,,,,,
"COc1cc2c(c3cccnc13)O[C@@H](CN1CC=C(c3c[nH]c4ccc(F)cc34)CC1)CO2 (as salt: fumarate) [Example 17, 2-[4-(5-Fluoro-1H-indol-3-yl)-3,6-dihydro-2H-pyridin-1-ylmethyl]-6-methoxy-2,3-dihydro[1,4]dioxino[2,3-f]qiuinoline]",217 °C,,,,,,
"Cc1ccc2c3c(ccc2n1)OCC(CN1CC=C(c2c[nH]c4cc(F)ccc24)CC1)O3 (stereo not drawn) (as salt: oxalate) (hydrate or solvate) [Example 10, 2-[4-(6-Fluoro-1H-indol-3-yl)-3,6-dihydro-2H-pyridin-1-ylmethyl]-8-methyl-2,3-dihydro[1,4]dioxino[2,3-f]quinoline]",140 to 143 °C,,,,,,
Fc1ccc2[nH]cc(CC3CCN(C[C@H]4COc5ccc6ncccc6c5O4)CC3)c2c1 (as salt: oxalate) [Example 3],184 °C,,,,,,
Fc1ccc2[nH]cc(C3=CCN(C[C@H]4COc5ccc6ncccc6c5O4)CC3)c2c1 (hydrate or solvate) [Example 2],184 °C,,,,,,
"C1=C(c2c[nH]c3ccccc23)CCN(C[C@H]2COc3ccc4ncccc4c3O2)C1 (hydrate or solvate) [Example 4, 2-[1,4-(1H-indol-3-yl)-3,6-dihydro-2H-pyridin-1-ylmethyl]-2,3-dihydro[1,4]dioxino[2,3-f]quinoline]",217 °C,,,,,,
"Cc1ccc2c3c(ccc2n1)OCC(CN1CCC(Cc2c[nH]c4ccc(F)cc24)CC1)O3 (stereo not drawn) [Example 8, 2-({4-[(5-Fluoro-1H-indol-3-yl)methyl]piperidin-1-yl}methyl)-8-methyl-2,3-dihydro[1,4]dioxino[2,3-f]quinoline]",91 to 92 °C,2.56 nM,7.24 nM,,,,
"Cc1ccc2c3c(ccc2n1)OCC(CN1CC=C(c2c[nH]c4ccccc24)CC1)O3 (stereo not drawn) [Example 9, 2-[4-(1H-Indol-3-yl)-3,6-dihydro-2H-yridin-1-ylmethyl]-8-methyl-2,3-dihydro[1,4]dioxino[2,3-f]quinoline]",210 °C,,,2.34 nM,3.02 nM,56.7 nM,98.3%
"CCc1ccc2c3c(ccc2n1)OCC(CN1CC=C(c2c[nH]c4ccccc24)CC1)O3 (stereo not drawn) [Example 13, 8-Ethyl-2-[(4-(1H-indol-3-yl)-3,6-dihydropyridin-1(2H)-yl)methyl]-2,3-dihydro[1,4]dioxino[2,3-f]quinoline]",190 °C,,,4.9 nM,6.82 nM,162 nM,88.7%
"Fc1cc2c(c3cccnc13)OC(CN1CC=C(c3c[nH]c4ccccc34)CC1)CO2 (stereo not drawn) [Example 16, 6-Fluoro-2-[4-(1H-indol-3-yl)-3,6-dihydro-2H-pyridin-1-ylmethyl]-2,3-dihydro[1,4]dioxino[2,3-f]quinoline]",215 °C,,55.9 nM,21 nM,,,
Cc1ccc2c3c(ccc2n1)OC[C@H](CN1CC=C(c2c[nH]c4c(F)cccc24)CC1)O3 [Example 21],205 to 221 °C,,,2.94 nM,7.75 nM,51.7 nM,100%
"Cc1cnc2ccc3c(c2c1)OC(CN1CC=C(c2c[nH]c4ccccc24)CC1)CO3 (stereo not drawn) [Example 23, 2-[4-(1H-Indol-3-yl)-3,6-dihydro-2H-pyridin-1-ylmethyl]-9-methyl-2,3-dihydro[1,4]dioxino[2,3-f]quinoline]",211 to 213 °C,,7.76 nM,28 nM,,,
